Source: patent publication US7815918B2, “Polypeptides and immunogenic conjugates capable of inducing antibodies against pathogens, and uses thereof” (priority 2003, dated 2010)
Entries after “also recorded” stand apart in the source; their conditions may differ. Ends that are not written are not given here.

How the values were obtained:
mAb 4F11(G1) [1] = assay: Western blot of purified recombinant thioredoxin fusion proteins probed with mAb 4F11; type: binding, mouse; conditions: for reactivity with mAb 4F11 in Western blot: purified thioredoxin fusion protein separated by SDS-PAGE
Source text: MAb 4F11 was produced as described (Lee et al., “Molecular Characterization of KEX1, a Kexin-Like Protease in Mouse Pneumocystis carinii,” Gene 242:141-150 (2000), which is hereby incorporated by reference in its entirety). For colony immunoscreens and P. carinii immunofluorescence assays (IFAs), mAb 4F11 IgM ascites fluid was used at a 1:5000 dilution. For enzyme-linked immunosorbent assays (ELISA) and Western blots of purified recombinant proteins an IgG1 switch-variant of mAb 4F11(G1) (Gigliotti et al., “Passive Intranasal Monoclonal Antibody Prophylaxis Against Murine Pneumocystis carinii Pneumonia,” Infect. Immun. 70:1069-1074 (2002), which is hereby incorporated by reference in its entirety) was prepared by saturated ammonium sulfate precipitation of tissue culture supernatant and used at the indicated dilutions. MAb 2B5 is an IgG1 that recognizes a mouse P. carinii gpA (Gigliotti et al., “Antibody-Mediated Shift in the Profile of Glycoprotein A Phenotypes Observed in a Mouse Model of Pneumocystis carinii Pneumonia,” Infect. Immun. 64:1892-1899 (1996), which is hereby incorporated by reference in its entirety) and was used as a negative control in S. pneumoniae immunoblots and IFAs. MAb 1C7 is an anti-mouse P. carinii IgM used as an isotype control in IFAs against P. carinii derived from different hosts. Pooled hyperimmune sera against mouse P. carinii was obtained as described previously (Gigliotti et al., “Development of Murine Monoclonal Antibodies to Pneumocystis carinii,” J. Infect. Dis. 154:315-322 (1986), which is hereby incorporated by reference in its entirety).
To confirm reactivity of E. coli pSCREEN transformants with mAb 4F11, 5 mL overnight cultures were pelleted and resuspended in 200 μL of 1× Laemmli SDS running/sample buffer+5% β-mercaptoethanol, and 20 μL samples were separated on NuPAGE Bis-Tris 4-12% gels (Invitrogen) by SDS-PAGE. S. pneumoniae from blood agar plates was grown in 5 mL THY overnight, 1 mL aliquots were pelleted, resuspended in 200 μL 1× sample buffer, and 20 μL were resolved by SDS-PAGE. Purified recombinant protein was suspended in sample buffer in equal concentrations and separated as described for cell lysates. Western blots were performed as previously described (Lee et al., “Molecular Characterization of KEX1, a Kexin-Like Protease in Mouse Pneumocystis carinii,” Gene 242:141-150 (2000), which is hereby incorporated by reference in its entirety).
Production of 6×His-tagged thioredoxin fusion proteins using the pBADTHIO expression system in E. coli was performed following the manufacturer's instructions. Briefly, overnight cultures were diluted 1:40 in fresh LB+100 μg/mL ampicillin and grown at 37° C. with shaking to absorbance at 600 nm of approximately 0.5. For fusion protein induction, arabinose was added to a final concentration of 0.02% and cultures were grown an additional 5 hr at 37° C. with shaking. Cells were pelleted by centrifugation at 1000×g then resuspended in ⅕ original culture volume with lysis buffer (50 mM sodium phosphate, 6 M guanidine-HCl, 300 mM NaCl) and vortexed vigorously. Debris was pelleted by centrifugation at 10,000×g at 4° C. The supernatants were passed over a TALON affinity resin column (BD Biosciences, Palo Alto, Calif.) that had been pre-equilibrated with lysis buffer. The columns were then washed twice with 10 mL 50 mM sodium phosphate, 300 mM NaCl. The fusion proteins were eluted with 2 mL buffer containing 50 mM sodium phosphate, 300 mM NaCl, and 150 mM imidazole. The eluted protein was dialyzed overnight against PBS at 4° C. and concentrated by vacuum centrifugation. Protein concentrations were determined using a BCA microwell assay kit (Pierce, Rockford, Ill.).

mAb 4F11(G1) [2] = assay: ELISA of epitope-thioredoxin fusion constructs using mAb 4F11(G1); type: binding, mouse
Method: (§1) Purified recombinant protein at a concentration of 10 μg/mL in 50 mM carbonate-bicarbonate buffer pH 9.5+0.1% SDS was used to coat Costar ELISA plates (Corning Incorporated, Corning, N.Y.) 16-20 hr at 37° C. The plates were blocked with 3% BSA-TBST for 1 hr at 4° C. Primary antibody was added in two-fold serial dilutions in 3% BSA-TBST and incubated at 4° C. for 1 hr. Goat anti-mouse IgG+IgM-alkaline phosphatase conjugate secondary antibody was added at 1:5000 dilution in BSA-TBST for one hr at 4° C. Blue Phos substrate (KPL, Gaithersburg Md.) was added for 30 min, color development was stopped with 2.5% EDTA, and absorbance was read at 655 nm using a Benchmark microplate reader (Bio-Rad).
Experimental ELISA results were statistically compared to the control values using a two-tailed Student's t test. Results were considered significant if p≦0.05.

[3] = target: 4F11(G1) binding against plate-bound sonicated mouse P. carinii; assay: Competitive (inhibition) ELISA: synthetic peptides as soluble competitors for 4F11(G1) binding to plate-bound sonicated mouse P. carinii
Source text: FIGS. 5A-F show the analysis of purified recombinant epitope-thioredoxin fusion proteins. FIG. 5A is a gel stained with Coomassie Blue. FIG. 5B is a Western blot using mAb 4F11(G1). FIG. 5C is a Western blot using anti-V5 epitope tag mAb. FIG. 5D is an ELISA of epitope-thioredoxin fusion constructs using mAb 4F11(G1). Results are plotted as the mean±standard error of triplicate experiments. […] Results are plotted as the mean±standard deviation of triplicate experiments. […] Results are plotted as the mean±standard deviation of triplicate experiments. The dashed line indicates the mean absorbance at 655 nm with no inhibitor and a 4F11(G1) dilution of 1:3200.
(§2) Mouse P. carinii Kexin 777-787 (RPAPPKPTPQP, SEQ ID NO: 56) and Kexin 131-142 (SGDTGNVNSGEK, SEQ ID NO: 57) peptides were purchased from Alpha Diagnostics (San Antonio, Tex.). ELISA experiments using the synthetic peptides were performed as described above, using 10 μg peptide/mL in carbonate-bicarbonate buffer to coat the plates. For competitive ELISA studies peptides were incubated at three fold dilutions with a starting concentration of 100 μg/mL for 2 hr with a 1:3200 dilution of mAb 4F11 at 4° C. to reach equilibrium. Mouse P. carinii sonicates in carbonate-bicarbonate buffer were used to coat ELISA plates at the equivalence of 4×10^4 cysts per well overnight at 4° C. The peptide-antibody mixtures, or antibody alone at 1:3200 dilution, were used as the primary antibody in the ELISA following the above protocol.

mAb 4F11(G1) [4] = assay: ELISA of synthetic P. carinii peptides using mAb 4F11(G1); type: binding, mouse; conditions: 10 μg peptide/mL coat, no fusion partner
Method: as §1
as §2, with “The peptide-antibody mixtures, or antibody alone at 1:3200 dilution, were used as the primary antibody in the ELISA following the above protocol.” left out

[5] = system: hyperimmune sera from mice immunized with whole P. carinii; assay: Western blot of A12 fusion protein with hyperimmune sera from P. carinii-immunized mice; type: binding, mouse
Source text: MAb 4F11 was produced as described (Lee et al., “Molecular Characterization of KEX1, a Kexin-Like Protease in Mouse Pneumocystis carinii,” Gene 242:141-150 (2000), which is hereby incorporated by reference in its entirety). For colony immunoscreens and P. carinii immunofluorescence assays (IFAs), mAb 4F11 IgM ascites fluid was used at a 1:5000 dilution. For enzyme-linked immunosorbent assays (ELISA) and Western blots of purified recombinant proteins an IgG1 switch-variant of mAb 4F11(G1) (Gigliotti et al., “Passive Intranasal Monoclonal Antibody Prophylaxis Against Murine Pneumocystis carinii Pneumonia,” Infect. Immun. 70:1069-1074 (2002), which is hereby incorporated by reference in its entirety) was prepared by saturated ammonium sulfate precipitation of tissue culture supernatant and used at the indicated dilutions. MAb 2B5 is an IgG1 that recognizes a mouse P. carinii gpA (Gigliotti et al., “Antibody-Mediated Shift in the Profile of Glycoprotein A Phenotypes Observed in a Mouse Model of Pneumocystis carinii Pneumonia,” Infect. Immun. 64:1892-1899 (1996), which is hereby incorporated by reference in its entirety) and was used as a negative control in S. pneumoniae immunoblots and IFAs. MAb 1C7 is an anti-mouse P. carinii IgM used as an isotype control in IFAs against P. carinii derived from different hosts. […]

[6] = at lower mAb 4F11 dilutions, plate coated 10 μg/mL

With “E46PRPQPTS53 (EPRPQPTS; not fully specified; printed as E46PRPQPTS53) [A1246-53]” the “reactivity with mAb 4F11 in Western blot” value (mAb 4F11(G1) [1]) was “do not react with mAb 4F11”.

With “E54PQPQPAP61 (EPQPQPAP; not fully specified; printed as E54PQPQPAP61) [A1254-61]” the “reactivity with mAb 4F11 in Western blot” value (mAb 4F11(G1) [1]) was “do not react with mAb 4F11”.

“K62PRPQPTSKPRPQPTP77 (KPRPQPTSKPRPQPTP; not fully specified; printed as K62PRPQPTSKPRPQPTP77) [A1262-77]” was tested, and the “ELISA reactivity to mAb 4F11” value (mAb 4F11(G1) [2]; at 1:800 or greater dilution) was “only background reactivity” and the “ELISA reactivity with mAb 4F11” value (mAb 4F11(G1) [2]; [6]) was “lower reactivity, but significantly higher than the thioredoxin fusion partner alone”.

With “K70PRPQPTP77 (KPRPQPTP; not fully specified; printed as K70PRPQPTP77) [A1270-77]” the “reactivity with mAb 4F11 in Western blot” value (mAb 4F11(G1) [1]) was “positive reactivity”.

With “K856PAPKPTP863 (KPAPKPTP; not fully specified; printed as K856PAPKPTP863) [Kexin856-863]” the “reactivity with mAb 4F11 in Western blot” value (mAb 4F11(G1) [1]) was “positive reactivity”.

With “K856PAPKPTPPKPAPKPAP872 (KPAPKPTPPKPAPKPAP; not fully specified; printed as K856PAPKPTPPKPAPKPAP872) [Kexin856-872]” the “ELISA reactivity with mAb 4F11” value (mAb 4F11(G1) [2]; [6]) was “highest reactivity”.

For “K865PAPKPAP872 (KPAPKPAP; not fully specified; printed as K865PAPKPAP872) [Kexin865-872]”, the “reactivity with mAb 4F11 in Western blot” value (mAb 4F11(G1) [1]) was “positive reactivity”.

For R777PAPPKPTPQP787 [Kexin777-787], the “50% inhibition of binding of mAb 4F11 to native P. carinii antigens” value ([3]; 4F11(G1) diluted 1:3200) was 150 ng/mL, the “concentration that completely blocks binding of mAb 4F11 to native P. carinii antigens” value ([3]; 4F11(G1) diluted 1:3200) was 1 µg/mL and the “ELISA reactivity with mAb 4F11” value (mAb 4F11(G1) [2]; at higher mAb 4F11 dilutions) was “greater reactivity with mAb 4F11 than did the original 17mer epitope”. For the same molecule, the “ELISA reactivity with mAb 4F11” value (mAb 4F11(G1) [2]; [6]) was “highest reactivity” and the “binding with mAb 4F11 compared with Kexin856-872, based on size and intensity of the Western blot band” value (mAb 4F11(G1) [1]; 1 μg purified protein) was “enhanced binding”.

For RPAPPKPTPQP [Kex777-787], the “ELISA reactivity of synthetic peptide to mAb 4F11” value (mAb 4F11(G1) [4]) was “high reactivity”.

For “SGDTGNVNSGEK [Kex131-142, reference compound]”, the “inhibition of binding of mAb 4F11 to native P. carinii antigens” value ([3]; at the highest concentration tested) was “no inhibition” and the “ELISA reactivity of synthetic peptide to mAb 4F11” value (mAb 4F11(G1) [4]) was “did not react”.

In the case of “thioredoxin fusion partner: thioredoxin fusion partner alone, negative control for the fusion constructs [reference compound]”, the “reactivity with mAb 4F11 in Western blot” value (mAb 4F11(G1) [1]) is reported as “does not react with mAb 4F11; also recorded: did not react with mAb 4F11” and the “reactivity with mAb 4F11 in Western blot” value (mAb 4F11(G1) [1]; listed as fusion partner) is reported as “did not react with mAb 4F11”.

B1: A121-82: truncated A12 molecule, residues 1-82 of SEQ ID NO: 5, expressed as thioredoxin fusion protein (protein)
chain: TNISEPALPDKDPQPTSSPQPKPRPRPRPQPQPHPHPKPQPQPTPEPQPQPAPEPRPQPTSKPRPQPTSKPRPQPTPEPRPL
modifications: thioredoxin fusion partner
With B1 the “reactivity with hyperimmune sera in Western blot” value [5] was “reacted with hyperimmune sera” and the “reactivity with mAb 4F11 in Western blot” value (mAb 4F11(G1) [1]) was “reacted with mAb 4F11”.

B2: A121-142: truncated A12 molecule, residues 1-142 of SEQ ID NO: 5, expressed as thioredoxin fusion protein (protein)
chain: TNISEPALPDKDPQPTSSPQPKPRPRPRPQPQPHPHPKPQPQPTPEPQPQPAPEPRPQPTSKPRPQPTSKPRPQPTPEPRPLPVPGPGPLPVPGPRPQPQPQPQPQPQPQPQPQPQPQPQPQPQPQPQPQPKPQPPSQSTSE
modifications: thioredoxin fusion partner
In the case of B2, the “reactivity with mAb 4F11 in Western blot” value (mAb 4F11(G1) [1]) is reported as “reacted with mAb 4F11”.

B3: URSP2 PspA: recombinant thioredoxin fusion protein containing the α-helical domain, clade defining region and proline-rich repeat region of URSP2 PspA (protein)
chain: EKELKEIDESDSEDYIKEGLRAPLQSKLDAKKAKLSKLEELSDKIDELDAEIAKLEKDVEDFKNSDGEQAEQYLVAAKKDLDAKKAELENTEADLKKAVDEPETPAPAPKPAPAPAPTPEAPAPAPKPAPAPKPAPAPAPTPEAPAPAPKPAPAPKPAPAPAPTPEAPAPAPKPAPAPRPAPAPKPAPDPKP
modifications: left off: large carriers
For B3, the “reactivity with mAb 4F11 in Western blot” value (mAb 4F11(G1) [1]) was “shown to react with mAb 4F11”.
